We go through eight molecules from article PMC7684578, “Isopedopeptins A–H: Cationic Cyclic Lipodepsipeptides from Pedobacter cryoconitis UP508 Targeting WHO Top-Priority Carbapenem-Resistant Bacteria” (ACS Chemical Biology, 2020).

SMILES strings stand for the structures. Starred links: 1 amine or outer side, 2 acyl side, 3 side chain; linkers in the order of their positions; H or OH if unused. Positions of bridges follow the written chain, without caps; N, C: chain ends. Non-standard residues stand in square brackets, D forms with d. Residues, ends and D or L forms follow the SMILES beside them. X4 = CC(C)CCC=CCCC[C@H](CC(=O)[*:1])O[*:2]; X6 = CC(C)CCCCC=CC[C@H](CC(=O)[*:1])O[*:2]; X5 = CC(C)CCCCCCC[C@H](CC(=O)[*:1])O[*:2]; X3 = CC(C)CCCCC[C@H](CC(=O)[*:1])O[*:2]; X7 = CCCCCCC=CC[C@H](CC(=O)[*:1])O[*:2]; X2 = CCCCCCC[C@H](CC(=O)[*:1])O[*:2]; Val(3-OH) = CC(C)(O)[C@H](N)C(=O)O; X1 = C/C=C(/N[*:1])C(=O)[*:2]; Dab = NCC[C@H](N)C(=O)O; Dap = NC[C@H](N)C(=O)O

The data set in a line: in vitro. It is filed as cell-based. The note with it: human, pH 7.4, Hemolysis (%). As to the method: positive control (Bortezomib) SI of <5%. The half maximal inhibitory concentration (IC50) was determined from log concentration-effect curves using non-linear regression analysis.
Frequency of resistance (FoR). For the determination of the FoR, the MIC of compound 2 was first evaluated on solid MH-agar medium prepared in 35 mm diameter plates. Each plate contained 4 mL agar with the appropriate amount of compound. Bacterial cultures were grown and prepared as described for the MIC assay. 13 µL of bacterial culture diluted to 0.5 MacFarland was inoculated into 1 mL 0.9% NaCl resulting in ~2 × 10^6 CFU/mL. 5 µL of this bacterial suspension was spotted onto the surface of each agar plate (~10^4 CFU/spot). Plates were sealed and incubated at 37°C for 18–20 hours. Agar MIC was recorded according to CLSI guidelines as the lowest concentration of […]
faint haze caused by the inoculum. Then 9 cm plates were prepared with 25 mL MHII agar medium containing 4 × or 8 × solid MIC concentrations of test compounds and seeded with 100 µL of a bacterial preparation, concentrated by centrifugation from overnight cultures and resuspended in 0.9% NaCl, corresponding to 108 CFU and 109 CFU per plate, and spread on the agar using 4–5 glass beads of 4 mm diameter. Since CFU were evaluated using the McFarland turbidity standard, the exact CFU number plated was evaluated by plating of serial dilutions of each inoculum preparation on MHII agar plates. Plates were incubated at 37°C and colonies were counted at 24 h and 48 h post-plating. The frequencies of resistance were then calculated by counting the number of validated resistant colonies growing on antibiotic preparations divided by the evaluated number of CFU in the inoculum.
Hemolysis assay. Compounds were evaluated for hemolytic activity using red blood cells from heparinized human blood. Red blood cells (RBC) were washed three times in Tyrode buffer (130 mM NaCl, 4 mM KCl, 2.8 mM NaOAc, 1 mM MgCl2, 10 mM HEPES, 10 mM glucose, 1 mM CaCl2, adjusted to pH 7.4) and resuspended in the same buffer. Final concentrations in the hemolysis assay were: 100 µM compound, 1% DMSO, and 50% RBC, assayed in a 200 µL volume in a microtiter plate. The mixture was incubated at 37 °C for 45 min with shaking (250 rpm). After incubation, RBCs were removed by centrifugation (1000 × g for 10 min), 100 µL clear plasma was transferred to a fresh microtiter plate, and the amount of hemoglobin measured using a spectrophotometer at 540 nm. The […]
complete lysis control contained 2% Triton X-100 (in Tyrode buffer) instead of compound; the negative control contained Tyrode buffer but no compound. Percent hemolysis was calculated as:
[Abs compound] - [Abs negative control] / [Abs complete lysis control] - [Abs negative control] ×
100. Values greater than 1% hemolysis at 100 µM were regarded as a red flag.
Bacterial membrane permeabilization assay. Liposomes were manufactured and permeabilization assayed as described previously.8 Briefly, dry lipid films of E. coli polar lipid extract were formed on round-bottom flask walls. This was achieved by dissolving lipids in chloroform and evaporating the solvent under agitation and nitrogen gas flow, followed by incubation in vacuum chamber. Lipid films were re-suspended by 30 min stirring (E. coli) at 55°C in an aqueous solution of 100 mM 5(6)-carboxyfluorescein in 10 mM Tris buffer (set to pH 7.4 at 37°C). Suspensions were subjected to repeated extrusion through a 100 nm pore size polycarbonate membrane in order to reduce multilamellar structures and polydispersity. Un-trapped carboxyfluorescein was removed by gel filtration. Membrane permeability was measured by monitoring carboxyfluorescein efflux from the liposomes to the external low concentration environment, resulting in loss of self-quenching and an increased fluorescence signal. The 96-well plates were prepared with a 2-fold serial dilution of the samples in Tris buffer, as well as negative controls (background) and 0.16% Triton X-100 (maximum […]
leakage). […]
The molecule `C/C=C1/NC(=O)[C@H](CCN)NC(=O)[C@H](CC(C)C)NC(=O)[C@H](CN)NC(=O)C[C@@H](CCCCCC(C)C)OC(=O)[C@H](CC(=O)O)NC(=O)[C@H](C(C)(C)O)NC(=O)[C@@H](Cc2ccccc2)NC(=O)[C@H](CN)NC(=O)[C@H]([C@@H](C)O)NC1=O` [Compound 1, cyclo(3-hydroxy-9-methyldecanoyl-DAPA1-Leu-DABA-ABA-Thr-DAPA2-Phe-OHVal-Asp)] ([Dap]L[Dab][X1]T[Dap][dF][Val(3-OH)]D; linker N-C via X3) registered a hemolysis at 45 min, 100 µM of 4.2%.

For the molecule `C/C=C1/NC(=O)[C@H](CCN)NC(=O)[C@H](CC(C)C)NC(=O)[C@H](CN)NC(=O)C[C@@H](CCCCCCC)OC(=O)[C@H](CC(=O)O)NC(=O)[C@H](C(C)(C)O)NC(=O)[C@@H](Cc2ccccc2)NC(=O)[C@H](CN)NC(=O)[C@H]([C@@H](C)O)NC1=O` [Compound 2, isopedopeptin B] ([Dap]L[Dab][X1]T[Dap][dF][Val(3-OH)]D; linker N-C via X2), the hemolysis at 45 min, 100 µM is below 0.8%.

Regarding `C/C=C1/NC(=O)[C@H](CCN)NC(=O)[C@H](CC(C)C)NC(=O)[C@H](CN)NC(=O)C[C@@H](CC=CCCCCCC)OC(=O)[C@H](CC(=O)O)NC(=O)[C@H](C(C)(C)O)NC(=O)[C@@H](Cc2ccccc2)NC(=O)[C@H](CN)NC(=O)[C@H]([C@@H](C)O)NC1=O` [Compound 3, isopedopeptin C] ([Dap]L[Dab][X1]T[Dap][dF][Val(3-OH)]D; linker N-C via X7), the hemolysis at 45 min, 100 µM turned out to be 3%.

`C/C=C1/NC(=O)[C@H](CCN)NC(=O)[C@H](CC(C)C)NC(=O)[C@H](CN)NC(=O)C[C@@H](CCCCCCC)OC(=O)[C@H](CC(=O)O)NC(=O)[C@H](C(C)C)NC(=O)[C@@H](Cc2ccccc2)NC(=O)[C@H](CN)NC(=O)[C@H]([C@@H](C)O)NC1=O` [Compound 4, isopedopeptin D] ([Dap]L[Dab][X1]T[Dap][dF]VD; linker N-C via X2) returned a hemolysis at 45 min, 100 µM of 9.1%.

`C/C=C1/NC(=O)[C@H](CCN)NC(=O)[C@H](CC(C)C)NC(=O)[C@H](CN)NC(=O)C[C@@H](CCCCCC(C)C)OC(=O)[C@H](CC(=O)O)NC(=O)[C@H](C(C)C)NC(=O)[C@@H](Cc2ccccc2)NC(=O)[C@H](CN)NC(=O)[C@H]([C@@H](C)O)NC1=O` [Compound 5, Isopedopeptin E] ([Dap]L[Dab][X1]T[Dap][dF]VD; linker N-C via X3) came in with a hemolysis at 45 min, 100 µM of 5.2%.

`C/C=C1/NC(=O)[C@H](CCN)NC(=O)[C@H](CC(C)C)NC(=O)[C@H](CN)NC(=O)C[C@@H](CCCCCCCC(C)C)OC(=O)[C@H](CC(=O)O)NC(=O)[C@H](C(C)(C)O)NC(=O)[C@@H](Cc2ccccc2)NC(=O)[C@H](CN)NC(=O)[C@H]([C@@H](C)O)NC1=O` [Compound 6, Isopedopeptin F] ([Dap]L[Dab][X1]T[Dap][dF][Val(3-OH)]D; linker N-C via X5) had a hemolysis at 45 min, 100 µM of 27.5%.

For `C/C=C1/NC(=O)[C@H](CCN)NC(=O)[C@H](CC(C)C)NC(=O)[C@H](CN)NC(=O)C[C@@H](CCCC=CCCC(C)C)OC(=O)[C@H](CC(=O)O)NC(=O)[C@H](C(C)C)NC(=O)[C@@H](Cc2ccccc2)NC(=O)[C@H](CN)NC(=O)[C@H]([C@@H](C)O)NC1=O` [Compound 7, Isopedopeptin G] ([Dap]L[Dab][X1]T[Dap][dF]VD; linker N-C via X4), the hemolysis at 45 min, 100 µM was determined as 14.1%.

As to `C/C=C1/NC(=O)[C@H](CCN)NC(=O)[C@H](CC(C)C)NC(=O)[C@H](CN)NC(=O)C[C@@H](CC=CCCCCC(C)C)OC(=O)[C@H](CC(=O)O)NC(=O)[C@H](C(C)C)NC(=O)[C@@H](Cc2ccccc2)NC(=O)[C@H](CN)NC(=O)[C@H]([C@@H](C)O)NC1=O` [Compound 8, Isopedopeptin H] ([Dap]L[Dab][X1]T[Dap][dF]VD; linker N-C via X6), the hemolysis at 45 min, 100 µM came out at 52.3%.
